Measurements: a compilation of properties of binary mixtures (doi:10.1021/acs.jced.5b00753)

Test: xn = mol fraction of the nth substance listed
Settings: 101 kPa

**Q.** Which results are given for `CC[n+]1ccn(C)c1.F[B-](F)(F)F` + CN(C)C=O?
**A.** viscosity (303.15 K, x2 = 0): 28 mPa·s; viscosity (303.15 K, x2 = 0.1016): 21.61 mPa·s; viscosity (303.15 K, x2 = 0.2994): 12.55 mPa·s; viscosity (303.15 K, x2 = 0.3987): 9.33 mPa·s; viscosity (303.15 K, x2 = 0.5005): 6.703 mPa·s; viscosity (303.15 K, x2 = 0.6004): 4.72 mPa·s; viscosity (303.15 K, x2 = 0.7): 3.214 mPa·s; viscosity (303.15 K, x2 = 0.7997): 2.114 mPa·s; viscosity (303.15 K, x2 = 0.8999): 1.305 mPa·s; viscosity (313.15 K, x2 = 0.1016): 16.03 mPa·s; viscosity (313.15 K, x2 = 0.2016): 12.53 mPa·s; viscosity (313.15 K, x2 = 0.2994): 9.74 mPa·s; viscosity (313.15 K, x2 = 0.6004): 3.867 mPa·s; viscosity (313.15 K, x2 = 0.7): 2.689 mPa·s; viscosity (313.15 K, x2 = 0.8999): 1.144 mPa·s; viscosity (323.15 K, x2 = 0.1016): 12.29 mPa·s; viscosity (323.15 K, x2 = 0.2016): 9.8 mPa·s; viscosity (323.15 K, x2 = 0.3987): 5.935 mPa·s; viscosity (323.15 K, x2 = 0.7): 2.293 mPa·s; viscosity (323.15 K, x2 = 0.7997): 1.567 mPa·s; viscosity (333.15 K, x2 = 0): 12.08 mPa·s; viscosity (333.15 K, x2 = 0.1016): 9.72 mPa·s; viscosity (333.15 K, x2 = 0.2016): 7.83 mPa·s; viscosity (333.15 K, x2 = 0.2994): 6.291 mPa·s; viscosity (333.15 K, x2 = 0.3987): 4.93 mPa·s; viscosity (333.15 K, x2 = 0.5005): 3.744 mPa·s; viscosity (333.15 K, x2 = 0.6004): 2.775 mPa·s; viscosity (333.15 K, x2 = 0.7): 1.993 mPa·s; viscosity (333.15 K, x2 = 0.7997): 1.387 mPa·s; viscosity (333.15 K, x2 = 0.8999): 0.899 mPa·s

**Q.** What does the source list for `CN(C)C=O` + CC[n+]1ccn(C)c1.F[B-](F)(F)F?
**A.** viscosity (303.15 K, x1 = 1): 0.744 mPa·s; viscosity (323.15 K, x1 = 1): 0.6 mPa·s

**Q.** For `CS(C)=O` + CC[n+]1ccn(C)c1.F[B-](F)(F)F, which viscosity (303.15 K, x1 = 1) is on record?
**A.** 1.784 mPa·s

**Q.** And the viscosity (313.15 K, x1 = 1)?
**A.** 1.498 mPa·s

**Q.** And the viscosity (323.15 K, x1 = 1)?
**A.** 1.27 mPa·s

**Q.** And the viscosity (333.15 K, x1 = 1)?
**A.** 1.095 mPa·s

**Q.** Which results are given for `CC(=O)N(C)C` + CC[n+]1ccn(C)c1.F[B-](F)(F)F?
**A.** viscosity (303.15 K, x1 = 1): 0.862 mPa·s; viscosity (313.15 K, x1 = 1): 0.758 mPa·s; viscosity (323.15 K, x1 = 1): 0.673 mPa·s; viscosity (333.15 K, x1 = 1): 0.602 mPa·s

**Q.** With `CC[n+]1ccn(C)c1.F[B-](F)(F)F` + CS(C)=O as the compound, how does the viscosity (303.15 K, x2 = 0) read?
**A.** 28 mPa·s

**Q.** And the viscosity (303.15 K, x2 = 0.1001)?
**A.** 24.39 mPa·s

**Q.** What about the viscosity (303.15 K, x2 = 0.4) of the same compound?
**A.** 14.08 mPa·s

**Q.** And the viscosity (303.15 K, x2 = 0.4996)?
**A.** 11.13 mPa·s

**Q.** What about the viscosity (303.15 K, x2 = 0.7002) of the same compound?
**A.** 6.249 mPa·s

**Q.** What about the viscosity (303.15 K, x2 = 0.9002) of the same compound?
**A.** 2.928 mPa·s

**Q.** And the viscosity (313.15 K, x2 = 0)?
**A.** 20.41 mPa·s

**Q.** And the viscosity (313.15 K, x2 = 0.1001)?
**A.** 17.83 mPa·s

**Q.** What about the viscosity (313.15 K, x2 = 0.2007) of the same compound?
**A.** 15.25 mPa·s

**Q.** And the viscosity (313.15 K, x2 = 0.4)?
**A.** 10.59 mPa·s

**Q.** And the viscosity (313.15 K, x2 = 0.4996)?
**A.** 8.46 mPa·s

**Q.** What about the viscosity (313.15 K, x2 = 0.6002) of the same compound?
**A.** 6.575 mPa·s

**Q.** And the viscosity (313.15 K, x2 = 0.7002)?
**A.** 4.936 mPa·s

**Q.** What about the viscosity (313.15 K, x2 = 0.7996) of the same compound?
**A.** 3.515 mPa·s

**Q.** And the viscosity (313.15 K, x2 = 0.9002)?
**A.** 2.385 mPa·s

**Q.** And the viscosity (323.15 K, x2 = 0)?
**A.** 15.35 mPa·s

**Q.** And the viscosity (323.15 K, x2 = 0.1001)?
**A.** 13.54 mPa·s

**Q.** What about the viscosity (323.15 K, x2 = 0.2007) of the same compound?
**A.** 11.62 mPa·s

**Q.** And the viscosity (323.15 K, x2 = 0.2996)?
**A.** 9.91 mPa·s

**Q.** What about the viscosity (323.15 K, x2 = 0.4996) of the same compound?
**A.** 6.667 mPa·s

**Q.** And the viscosity (323.15 K, x2 = 0.6002)?
**A.** 5.296 mPa·s

**Q.** And the viscosity (323.15 K, x2 = 0.7002)?
**A.** 3.971 mPa·s

**Q.** What about the viscosity (323.15 K, x2 = 0.7996) of the same compound?
**A.** 2.893 mPa·s

**Q.** What about the viscosity (333.15 K, x2 = 0) of the same compound?
**A.** 12.08 mPa·s

**Q.** And the viscosity (333.15 K, x2 = 0.1001)?
**A.** 10.64 mPa·s

**Q.** What about the viscosity (333.15 K, x2 = 0.2007) of the same compound?
**A.** 9.18 mPa·s

**Q.** And the viscosity (333.15 K, x2 = 0.2996)?
**A.** 7.87 mPa·s

**Q.** What about the viscosity (333.15 K, x2 = 0.4) of the same compound?
**A.** 6.571 mPa·s

**Q.** And the viscosity (333.15 K, x2 = 0.4996)?
**A.** 5.382 mPa·s

**Q.** And the viscosity (333.15 K, x2 = 0.6002)?
**A.** 4.335 mPa·s

**Q.** And the viscosity (333.15 K, x2 = 0.7002)?
**A.** 3.294 mPa·s

**Q.** What about the viscosity (333.15 K, x2 = 0.7996) of the same compound?
**A.** 2.438 mPa·s

**Q.** For `CC[n+]1ccn(C)c1.F[B-](F)(F)F` + CC(=O)N(C)C, which viscosity (303.15 K, x2 = 0.0996) is on record?
**A.** 22.75 mPa·s

**Q.** And the viscosity (303.15 K, x2 = 0.2995)?
**A.** 13.99 mPa·s

**Q.** And the viscosity (303.15 K, x2 = 0.3989)?
**A.** 10.62 mPa·s

**Q.** And the viscosity (303.15 K, x2 = 0.5005)?
**A.** 7.83 mPa·s

**Q.** And the viscosity (303.15 K, x2 = 0.8994)?
**A.** 1.549 mPa·s

**Q.** And the viscosity (313.15 K, x2 = 0)?
**A.** 20.41 mPa·s

**Q.** And the viscosity (313.15 K, x2 = 0.0996)?
**A.** 16.86 mPa·s

**Q.** And the viscosity (313.15 K, x2 = 0.1998)?
**A.** 13.59 mPa·s

**Q.** What about the viscosity (313.15 K, x2 = 0.2995) of the same compound?
**A.** 10.65 mPa·s

**Q.** What about the viscosity (313.15 K, x2 = 0.3989) of the same compound?
**A.** 8.23 mPa·s

**Q.** What about the viscosity (313.15 K, x2 = 0.6996) of the same compound?
**A.** 3.147 mPa·s

**Q.** What about the viscosity (313.15 K, x2 = 0.8001) of the same compound?
**A.** 2.092 mPa·s

**Q.** What about the viscosity (313.15 K, x2 = 0.8994) of the same compound?
**A.** 1.328 mPa·s

**Q.** And the viscosity (323.15 K, x2 = 0.0996)?
**A.** 12.8 mPa·s

**Q.** And the viscosity (323.15 K, x2 = 0.1998)?
**A.** 10.45 mPa·s

**Q.** And the viscosity (323.15 K, x2 = 0.3989)?
**A.** 6.555 mPa·s

**Q.** And the viscosity (323.15 K, x2 = 0.5005)?
**A.** 4.982 mPa·s

**Q.** What about the viscosity (323.15 K, x2 = 0.6) of the same compound?
**A.** 3.69 mPa·s

**Q.** And the viscosity (323.15 K, x2 = 0.6996)?
**A.** 2.638 mPa·s

**Q.** What about the viscosity (323.15 K, x2 = 0.8001) of the same compound?
**A.** 1.79 mPa·s

**Q.** What about the viscosity (323.15 K, x2 = 0.8994) of the same compound?
**A.** 1.154 mPa·s

**Q.** And the viscosity (333.15 K, x2 = 0)?
**A.** 12.08 mPa·s

**Q.** And the viscosity (333.15 K, x2 = 0.0996)?
**A.** 10.09 mPa·s

**Q.** And the viscosity (333.15 K, x2 = 0.1998)?
**A.** 8.31 mPa·s

**Q.** And the viscosity (333.15 K, x2 = 0.5005)?
**A.** 4.122 mPa·s

**Q.** And the viscosity (333.15 K, x2 = 0.6)?
**A.** 3.115 mPa·s

**Q.** And the viscosity (333.15 K, x2 = 0.6996)?
**A.** 2.252 mPa·s

**Q.** What about the viscosity (333.15 K, x2 = 0.8001) of the same compound?
**A.** 1.563 mPa·s

**Q.** What about the viscosity (333.15 K, x2 = 0.8994) of the same compound?
**A.** 1.029 mPa·s
